Test results: patent US20010023259A1, “Conjugated fatty acids and related compounds” (Natural ASA, priority 1999, published 2001)

System: Spirulina platensis (Arthrospira sp.) PCC8005
Assay: Incubation of fatty acid substrates with S. platensis; fatty acid composition of extracted lipids by GC
Assay type: cell-based
Settings: for 6,9,11 - 18:3 (desaturated metabolite), fatty acid composition of lipids extracted from S. platensis / 9,11 - 18:2 (substrate taken up), fatty acid composition of lipids extracted from S. platensis / Amount, total weight of lipid in extract / linoleic acid 18:2, fatty acid composition of lipids extracted from S. platensis / linolenic acid 18:3 (n-6), fatty acid composition of lipids extracted from S. platensis / oleic acid 18:1, fatty acid composition of lipids extracted from S. platensis / palmitic acid 16:0, fatty acid composition of lipids extracted from S. platensis / palmitoleic acid 16:1, fatty acid composition of lipids extracted from S. platensis / stearic acid 18:0, fatty acid composition of lipids extracted from S. platensis: incubation with added 9-cis,11-trans-octadecadienoic acid
Protocol: Spirulina platensis (Arthrospira sp.) PCC8005 was grown in Zabrouk's medium in 50 ml batch culture in 100 ml erlenmeyer flasks at 30° C. with illumination of 50 μmol photons m^-2 […]. Cultures were harvested following 5 days growth by centrifugation at 40,000 g in a […] rotor in a Beckman Avanti centrifuge 20 minutes, cooled rotor @4° C. The algal pellet was carefully resuspended in fresh Zabrouk's medium under aseptic conditions. Initial time-course experiments were carried out by resuspending the algal pellet in 50 ml fresh medium, which was then divided into 10 ml aliquots, each containing 0.5 ml of 1.8mM ammonium fatty acid substrate and incubating under the above conditions. Control cultures incubated without linoleate were also set up. […] The algal pellet was washed four times in 50 ml freshly drawn MilliQ water and then freeze dried prior to analyses. In later experiments where bulk material was required for a more detailed analysis of the metabolite produced, 4×50 ml cultures were grown and harvested as above. […] Following this incubation the algal material was pelleted, washed and freeze dried as described above. […] The latter were converted to the picolinyl ester derivatives by the procedure of Balazy and Nies, Biomed. Environ. […] The temperature of both the injector and detector was 250° C. Hydrogen was the carrier gas. The analyses were performed with a column (fused silica capillary) coated with carbowax (Chrompack UK Ltd, London, 30 m×[…] i.d.). The oven temperature was programmed from 170 to 220° C. at 4° C./min.

Question: For `CCCCC/C=C\C=C\CCCCCCCCC(=O)O` [10-t,12-c-octadecadienoic acid], which “metabolite formed, share of the conjugated acids” value (96 hours incubation) is on record?
Answer: 18 % of the conjugated acids

Question: What about the “metabolite formed, share of the total fatty acids” value (96 hours incubation, GC retention time expected for 6-c,10-t,12-c-octadecatrienoic acid) of the same molecule?
Answer: 6.4 % of the total fatty acids

Question: And the “incorporation into the lipids of S. platensis” value (substrate added exogenously)?
Answer: rapidly incorporated

Question: How did the “recovered CLA isomer converted to the desaturated metabolite” value (after 24 hours) turn out when `CCCCCC/C=C/C=C\CCCCCCCC(=O)O` [CLA, 9-cis,11-trans-octadecadienoic acid] was run?
Answer: 13%

Question: What about the “compound taken up from the surrounding medium, share of lipid” value (at 24 hrs) of the same molecule?
Answer: 27.8 % of lipid

Question: What about the “time at which plateau level of the 6,9,11 tri-unsaturated fatty acid is attained” value (conversion of the di-unsaturated compound) of the same molecule?
Answer: about 72 hours

Question: And the “change of relative proportion of oleate with time” value (extracts incubated with the CLA isomer, 0-96 h)?
Answer: increased four fold

Question: And the “6,9,11 - 18:3 (desaturated metabolite), fatty acid composition of lipids extracted from S. platensis” value (from here on “6,9,11 - 18:3 (desaturated metabolite)”) (0h)?
Answer: 0.0 wt %

Question: What about the “9,11 - 18:2 (substrate taken up), fatty acid composition of lipids extracted from S. platensis” value (“9,11 - 18:2 (substrate taken up)” for short) (0h) of the same molecule?
Answer: 0.0 wt %

Question: What about the “Amount, total weight of lipid in extract” value (0h) of the same molecule?
Answer: 85.3 µg

Question: And the “linoleic acid 18:2, fatty acid composition of lipids extracted from S. platensis” value (0h)?
Answer: 11.7 wt %

Question: What about the “linolenic acid 18:3 (n-6), fatty acid composition of lipids extracted from S. platensis” value (0h) of the same molecule?
Answer: 32.2 wt %

Question: And the “oleic acid 18:1, fatty acid composition of lipids extracted from S. platensis” value (shortened to “oleic acid 18:1, fatty acid composition”) (0h)?
Answer: 4.9 wt %

Question: And the “palmitic acid 16:0, fatty acid composition of lipids extracted from S. platensis” value (0h)?
Answer: 42.0 wt %

Question: And the “palmitoleic acid 16:1, fatty acid composition of lipids extracted from S. platensis” value (0h)?
Answer: 6.5 wt %

Question: What about the “stearic acid 18:0, fatty acid composition of lipids extracted from S. platensis” value (0h) of the same molecule?
Answer: 2.6 wt %

Question: What about the “6,9,11 - 18:3 (desaturated metabolite)” value (24h) of the same molecule?
Answer: 4.1 wt %

Question: What about the “9,11 - 18:2 (substrate taken up)” value (24h) of the same molecule?
Answer: 27.8 wt %

Question: And the “Amount, total weight of lipid in extract” value (24h)?
Answer: 170.3 µg

Question: What about the “linoleic acid 18:2, fatty acid composition of lipids extracted from S. platensis” value (24h) of the same molecule?
Answer: 8.2 wt %

Question: What about the “linolenic acid 18:3 (n-6), fatty acid composition of lipids extracted from S. platensis” value (24h) of the same molecule?
Answer: 19.5 wt %

Question: What about the “oleic acid 18:1, fatty acid composition” value (24h) of the same molecule?
Answer: 4.0 wt %

Question: And the “palmitic acid 16:0, fatty acid composition of lipids extracted from S. platensis” value (24h)?
Answer: 30.7 wt %

Question: And the “palmitoleic acid 16:1, fatty acid composition of lipids extracted from S. platensis” value (24h)?
Answer: 4.7 wt %

Question: And the “stearic acid 18:0, fatty acid composition of lipids extracted from S. platensis” value (24h)?
Answer: 0.9 wt %

Question: And the “6,9,11 - 18:3 (desaturated metabolite)” value (48h)?
Answer: 5.1 wt %

Question: And the “9,11 - 18:2 (substrate taken up)” value (48h)?
Answer: 21.2 wt %

Question: And the “Amount, total weight of lipid in extract” value (48h)?
Answer: 188.3 µg

Question: And the “linoleic acid 18:2, fatty acid composition of lipids extracted from S. platensis” value (48h)?
Answer: 6.9 wt %

Question: What about the “linolenic acid 18:3 (n-6), fatty acid composition of lipids extracted from S. platensis” value (48h) of the same molecule?
Answer: 19.0 wt %

Question: What about the “oleic acid 18:1, fatty acid composition” value (48h) of the same molecule?
Answer: 8.6 wt %

Question: And the “palmitic acid 16:0, fatty acid composition of lipids extracted from S. platensis” value (48h)?
Answer: 32.7 wt %

Question: And the “palmitoleic acid 16:1, fatty acid composition of lipids extracted from S. platensis” value (48h)?
Answer: 5.3 wt %

Question: And the “stearic acid 18:0, fatty acid composition of lipids extracted from S. platensis” value (48h)?
Answer: 1.2 wt %

Question: And the “6,9,11 - 18:3 (desaturated metabolite)” value (72h)?
Answer: 5.7 wt %

Question: And the “9,11 - 18:2 (substrate taken up)” value (72h)?
Answer: 16.2 wt %

Question: What about the “Amount, total weight of lipid in extract” value (72h) of the same molecule?
Answer: 211.8 µg

Question: What about the “linoleic acid 18:2, fatty acid composition of lipids extracted from S. platensis” value (72h) of the same molecule?
Answer: 4.9 wt %

Question: And the “linolenic acid 18:3 (n-6), fatty acid composition of lipids extracted from S. platensis” value (72h)?
Answer: 16.5 wt %

Question: And the “oleic acid 18:1, fatty acid composition” value (72h)?
Answer: 15.4 wt %

Question: And the “palmitic acid 16:0, fatty acid composition of lipids extracted from S. platensis” value (72h)?
Answer: 34.3 wt %

Question: And the “palmitoleic acid 16:1, fatty acid composition of lipids extracted from S. platensis” value (72h)?
Answer: 5.4 wt %

Question: What about the “stearic acid 18:0, fatty acid composition of lipids extracted from S. platensis” value (72h) of the same molecule?
Answer: 1.7 wt %

Question: What about the “6,9,11 - 18:3 (desaturated metabolite)” value (96h) of the same molecule?
Answer: 5.8 wt %

Question: What about the “9,11 - 18:2 (substrate taken up)” value (96h) of the same molecule?
Answer: 10.5 wt %

Question: What about the “Amount, total weight of lipid in extract” value (96h) of the same molecule?
Answer: 166.2 µg

Question: What about the “linoleic acid 18:2, fatty acid composition of lipids extracted from S. platensis” value (96h) of the same molecule?
Answer: 3.9 wt %

Question: What about the “linolenic acid 18:3 (n-6), fatty acid composition of lipids extracted from S. platensis” value (96h) of the same molecule?
Answer: 15.1 wt %

Question: And the “oleic acid 18:1, fatty acid composition” value (96h)?
Answer: 21.6 wt %

Question: What about the “palmitic acid 16:0, fatty acid composition of lipids extracted from S. platensis” value (96h) of the same molecule?
Answer: 35.4 wt %

Question: What about the “palmitoleic acid 16:1, fatty acid composition of lipids extracted from S. platensis” value (96h) of the same molecule?
Answer: 5.7 wt %

Question: What about the “stearic acid 18:0, fatty acid composition of lipids extracted from S. platensis” value (96h) of the same molecule?
Answer: 1.9 wt %

Question: And the “incorporation into the lipids of S. platensis” value (substrate added exogenously)?
Answer: rapidly take up the compound

Question: Which results are given for `CCCCCC#CCC=CCCCCCCCC(=O)O` [Crepenynic acid, octadeca-9-en-12-ynoic acid]?
Answer: C20 homologue formed by chain elongation in the total fatty acids (96 hours incubation): detected; desaturation in position 6 by S. platensis (substrate added exogenously): converted to a dehydro-metabolite; incorporation into the lipids of S. platensis (substrate added exogenously): taken up
